# Legend:
# [1] = molecular target: T1, Candida albicans isoleucyl-tRNA synthetase, N-terminal GST-fusion protein (GST-IleRS) encoded by pQB83CAIRS-1, produced in S. cerevisiae, SEQ ID NO:2 (Candida albicans, UniProt Q59RI1, S1065L/S390L); assay: Aminoacylation (charging) assay for Km determination, purified GST-IleRS fusion; assay type: biochemical; settings: isoleucine varied; 1.09 nM active enzyme; crude yeast tRNA
# T1 construct: thrombin-cleavable), pQB83CAIRS-1, expressed in S. cerevisiae QBY3; CTG codons 390 and 1065 read as Leu by host
# T1 sequence (Q59RI1 whole entry S390L/N691S/E755D/I1040V/S1065L, the tested form may be a part): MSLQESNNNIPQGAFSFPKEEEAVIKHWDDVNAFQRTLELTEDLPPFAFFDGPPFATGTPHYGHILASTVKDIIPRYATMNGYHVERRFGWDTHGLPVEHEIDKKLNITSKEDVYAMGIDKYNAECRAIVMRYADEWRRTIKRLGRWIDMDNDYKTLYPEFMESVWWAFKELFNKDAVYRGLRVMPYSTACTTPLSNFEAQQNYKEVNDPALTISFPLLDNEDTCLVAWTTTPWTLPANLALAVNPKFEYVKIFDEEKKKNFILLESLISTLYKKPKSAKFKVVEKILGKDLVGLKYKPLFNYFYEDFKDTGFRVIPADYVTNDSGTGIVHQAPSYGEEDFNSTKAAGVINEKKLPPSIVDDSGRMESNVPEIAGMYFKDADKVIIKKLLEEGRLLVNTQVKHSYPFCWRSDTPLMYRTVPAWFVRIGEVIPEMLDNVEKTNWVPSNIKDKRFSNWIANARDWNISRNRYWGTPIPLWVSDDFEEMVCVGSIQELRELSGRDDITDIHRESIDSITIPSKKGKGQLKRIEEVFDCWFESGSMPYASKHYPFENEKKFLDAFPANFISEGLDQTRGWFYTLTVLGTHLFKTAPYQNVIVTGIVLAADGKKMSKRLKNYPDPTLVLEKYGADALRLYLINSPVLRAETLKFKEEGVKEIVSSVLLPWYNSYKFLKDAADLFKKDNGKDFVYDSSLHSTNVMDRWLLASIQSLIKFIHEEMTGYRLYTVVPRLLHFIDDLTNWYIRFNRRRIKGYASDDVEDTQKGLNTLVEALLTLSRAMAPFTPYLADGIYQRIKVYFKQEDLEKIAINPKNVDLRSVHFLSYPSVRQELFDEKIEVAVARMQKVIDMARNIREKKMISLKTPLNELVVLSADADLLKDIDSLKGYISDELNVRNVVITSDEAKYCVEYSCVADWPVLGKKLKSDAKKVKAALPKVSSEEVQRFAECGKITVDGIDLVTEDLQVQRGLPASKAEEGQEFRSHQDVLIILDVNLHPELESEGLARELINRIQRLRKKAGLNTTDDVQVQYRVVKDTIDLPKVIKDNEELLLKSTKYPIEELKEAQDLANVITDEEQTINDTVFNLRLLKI
# Procedure: (§1) The purified recombinant GST-fusion protein and the product after thrombin cleavage of the GST-fusion protein were tested for their charging activities. Charging assays were based on the procedure of Shepard et al. (Proc. Natl. Acad. Sci. USA 89:9964-68 (1992)). Unless otherwise stated, a typical 50 μl reaction was carried out at 25° C. and contained 4 mM ATP, 20 μM of [^3 H]isoleucine, 90 μM crude tRNA from E. coli (Sigma) or brewer's yeast (Boehringer Mannheim), 10 μM KF, 50 mM HEPES, pH 7.5, 10 mM MgCl2, 10 mM DTT or β-mercaptoethanol and 30 mM NH4 Cl. Purified enzyme was diluted in 100 mM HEPES, pH 7.5, 20 mM DTT and 0.1 mg/ml BSA.
# (§2) Reactions were started by the addition of enzyme to the reaction mixture preincubated at 25° C. At various time intervals, 10 μl of the reaction mix was spotted on 3MM Whatman filter circles which were then immersed in ice cold 5% TCA. After three washes in ice cold 5% TCA (at least 15 minutes each), the filters were rinsed once with cold ethanol, once with ether, and air dried. The radioactivity was quantitated by counting the filters in a table top scintillation counter (Packard) in the presence of scintillation fluid (Betafluor; National Diagnostics).
# (§3) For determination of Km, various concentrations of one substrate (ATP, amino acid, or tRNA) were used while the other two substrates were kept at saturating concentrations. To test the effect of temperature, the reactions were incubated at 25°, 30°, 37° and 42° C. The Bradford assay was used for determination of total protein. The proportion of active enzyme was calculated by monitoring the formation of the amino acid-adenylate:enzyme complex using a nitrocellulose filter binding assay in the presence of various dilutions of enzyme preparation. A 50 μl reaction contained 1 mM ATP, 1 unit of pyrophosphatase, 50 mM Tris-HCl, pH 5.8, 10 mM MgCl2, 30 mM KCl, 20 mM DTT, 40 μM of radioactively labeled amino acid, and diluted enzyme. […]
# CC[C@H](C)[C@H](N)C(=O)O = assay: as above; assay type: biochemical, Candida albicans; settings: other: crude yeast tRNA, 2 to 32 μM [3H]isoleucine, 25° C., spread printed in b267: ±4.8 μM
# Procedure: as §1, §2, §3
Compound,Vmax [1],kcat [1],Km (CC[C@H](C)[C@H](N)C(=O)O)
CC[C@H](C)[C@H](N)C(=O)O [isoleucine],4 ± 0.5 nM/s,3.7±0.5 per sec,–
"Candida albicans isoleucyl-tRNA synthetase, N-terminal GST-fusion protein (GST-IleRS) encoded by pQB83CAIRS-1, produced in S. cerevisiae, SEQ ID NO:2 (Candida albicans SC5314; S1065L/S390L)",–,–,17 µM
